Results as given in patent US12390419B2, “Formulations of (R)-2-amino-3-phenylpropyl carbamate” (AXSOME MALTA LTD., priority 2016, dated 2025).
Values after ≈ are worked out from the molar mass of the structure shown.

How the values were obtained:
[1] = Solubility of APC in 0.2M phosphate buffers; type: physicochemical
[2] = Dissolution of coated APC tablets in three media (apparatus 1 basket, 100 rpm, 900 ml, 37° C.); type: physicochemical
Experimental: A substantial concern was the effect of media pH. Although APC will be developed as an immediate release product, FDA guidances require comparison of profiles in three media including pH 6.8 (representing intestinal pH). […] The media used were 0.1 N HCl pH 1.2, acetate buffer pH 4.5, and phosphate buffer pH 6.8. The dissolution study was carried using 12 tablets per dose, apparatus 1 (basket), 900 ml media volume, 37° C., 100 rpm. The tablets were coated with Opadry white polymer system.

## NC(=O)OC[C@H](N)Cc1ccccc1 [APC, (R)-2-amino-3-phenylpropyl carbamate]
[1]; 0.2M phosphate buffer, pH 6.8, aqueous buffer, thermodynamic from solid
  solubility: 26 mg/mL (≈ 134 mM)
[1]; aqueous buffer, thermodynamic from solid, 0.2M phosphate buffer pH 5.33, pH after equilibration 4.25
  solubility: 542 mg/mL (≈ 2790 mM)
[1]; aqueous buffer, thermodynamic from solid, 0.2M phosphate buffer pH 5.95, pH after equilibration 4.78
  solubility: 525 mg/mL (≈ 2710 mM)
[1]; aqueous buffer, thermodynamic from solid, 0.2M phosphate buffer pH 6.97, pH after equilibration 6.76
  solubility: 26.6 mg/mL (≈ 137 mM)
[1]; aqueous buffer, thermodynamic from solid, 0.2M phosphate buffer pH 8.02, pH after equilibration 7.47
  solubility: 22.5 mg/mL (≈ 116 mM)
[1]; aqueous buffer, thermodynamic from solid, 0.2M phosphate buffer pH 8.99, pH after equilibration 7.55
  solubility: 22.4 mg/mL (≈ 115 mM)
[1]; pH 4.22, thermodynamic from solid, pH of buffer N/A (water), pH after equilibration 4.22
  solubility: 534 mg/mL (≈ 2750 mM)
[1]; water or acidic media, water, thermodynamic from solid
  solubility: 530 mg/mL (≈ 2730 mM)
[2]; 37.5 mg tablet, pH 1.2, 5 min
  Percent release: 71.9%
[2]; 37.5 mg tablet, pH 1.2, 10 min
  Percent release: 99.3%
[2]; 37.5 mg tablet, pH 1.2, 15 min
  Percent release: 99.7%
[2]; 37.5 mg tablet, pH 4.5, 5 min
  Percent release: 76.8%
[2]; 37.5 mg tablet, pH 4.5, 10 min
  Percent release: 101.8%
[2]; 37.5 mg tablet, pH 4.5, 15 min
  Percent release: 102.1%
[2]; 37.5 mg tablet, pH 6.8, 5 min
  Percent release: 69.6%
[2]; 37.5 mg tablet, pH 6.8, 10 min
  Percent release: 100.2%
[2]; 37.5 mg tablet, pH 6.8, 15 min
  Percent release: 100.7%
[2]; 75 mg tablet, pH 1.2, 5 min
  Percent release: 62.9%
[2]; 75 mg tablet, pH 1.2, 10 min
  Percent release: 98.7%
[2]; 75 mg tablet, pH 1.2, 15 min
  Percent release: 99.4%
[2]; 75 mg tablet, pH 4.5, 5 min
  Percent release: 53.9%
[2]; 75 mg tablet, pH 4.5, 10 min
  Percent release: 100.8%
[2]; 75 mg tablet, pH 4.5, 15 min
  Percent release: 102.5%
[2]; 75 mg tablet, pH 6.8, 5 min
  Percent release: 57.6%
[2]; 75 mg tablet, pH 6.8, 10 min
  Percent release: 99.4%
[2]; 75 mg tablet, pH 6.8, 15 min
  Percent release: 100.2%
[2]; 150 mg tablet, pH 1.2, 5 min
  Percent release: 46.8%
[2]; 150 mg tablet, pH 1.2, 10 min
  Percent release: 96.9%
[2]; 150 mg tablet, pH 1.2, 15 min
  Percent release: 98.4%
[2]; 150 mg tablet, pH 4.5, 5 min
  Percent release: 42.6%
[2]; 150 mg tablet, pH 4.5, 10 min
  Percent release: 97.7%
[2]; 150 mg tablet, pH 4.5, 15 min
  Percent release: 100.4%
[2]; 150 mg tablet, pH 6.8, 5 min
  Percent release: 42.4%
[2]; 150 mg tablet, pH 6.8, 10 min
  Percent release: 97.4%
[2]; 150 mg tablet, pH 6.8, 15 min
  Percent release: 100.7%
[2]; 300 mg tablet, pH 1.2, 5 min
  Percent release: 35.0%
[2]; 300 mg tablet, pH 1.2, 10 min
  Percent release: 91.2%
[2]; 300 mg tablet, pH 1.2, 15 min
  Percent release: 99.5%
[2]; 300 mg tablet, pH 4.5, 5 min
  Percent release: 30.0%
[2]; 300 mg tablet, pH 4.5, 10 min
  Percent release: 89.1%
[2]; 300 mg tablet, pH 4.5, 15 min
  Percent release: 99.8%
[2]; 300 mg tablet, pH 6.8, 5 min
  Percent release: 31.6%
[2]; 300 mg tablet, pH 6.8, 10 min
  Percent release: 89.9%
[2]; 300 mg tablet, pH 6.8, 15 min
  Percent release: 100.2%
